US8647827B2, “Fluorescent substrates for neurotransmitter transporters” (Vanderbilt University, priority 2006, dated 2014)
Where two headings read alike, the source gives them in different places.

Key:
NET [1] = target: T1, NET (Homo sapiens, UniProt P23975); details: previously reported, U.S. Publication No. 20040115703; cited from earlier work
SERT [2] = target: T2, SERT (Homo sapiens, UniProt P31645); details: cited from earlier work
Target sequence in this assay (P31645 whole entry, species assumed): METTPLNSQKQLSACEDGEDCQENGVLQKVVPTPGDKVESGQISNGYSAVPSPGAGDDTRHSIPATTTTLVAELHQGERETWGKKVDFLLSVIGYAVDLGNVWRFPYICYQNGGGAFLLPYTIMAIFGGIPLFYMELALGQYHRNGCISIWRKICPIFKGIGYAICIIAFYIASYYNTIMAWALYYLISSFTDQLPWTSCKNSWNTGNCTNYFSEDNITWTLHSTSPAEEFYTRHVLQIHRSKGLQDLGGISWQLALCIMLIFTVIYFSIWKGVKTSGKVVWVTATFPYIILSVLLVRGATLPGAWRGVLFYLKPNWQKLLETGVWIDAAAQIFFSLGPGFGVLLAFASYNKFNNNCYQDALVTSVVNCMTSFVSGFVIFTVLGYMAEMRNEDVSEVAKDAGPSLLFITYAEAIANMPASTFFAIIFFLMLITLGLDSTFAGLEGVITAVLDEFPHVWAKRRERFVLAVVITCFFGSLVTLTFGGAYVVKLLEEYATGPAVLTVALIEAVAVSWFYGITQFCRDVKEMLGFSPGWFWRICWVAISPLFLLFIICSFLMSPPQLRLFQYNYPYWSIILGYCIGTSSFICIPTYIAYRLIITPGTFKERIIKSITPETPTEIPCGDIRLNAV

DAT [3] = target: DAT (Homo sapiens, UniProt Q01959); details: previously reported, U.S. Publication No. 20040115703; cited from earlier work
Chain of DAT (Homo sapiens, UniProt Q01959) (Q01959 whole entry, species assumed): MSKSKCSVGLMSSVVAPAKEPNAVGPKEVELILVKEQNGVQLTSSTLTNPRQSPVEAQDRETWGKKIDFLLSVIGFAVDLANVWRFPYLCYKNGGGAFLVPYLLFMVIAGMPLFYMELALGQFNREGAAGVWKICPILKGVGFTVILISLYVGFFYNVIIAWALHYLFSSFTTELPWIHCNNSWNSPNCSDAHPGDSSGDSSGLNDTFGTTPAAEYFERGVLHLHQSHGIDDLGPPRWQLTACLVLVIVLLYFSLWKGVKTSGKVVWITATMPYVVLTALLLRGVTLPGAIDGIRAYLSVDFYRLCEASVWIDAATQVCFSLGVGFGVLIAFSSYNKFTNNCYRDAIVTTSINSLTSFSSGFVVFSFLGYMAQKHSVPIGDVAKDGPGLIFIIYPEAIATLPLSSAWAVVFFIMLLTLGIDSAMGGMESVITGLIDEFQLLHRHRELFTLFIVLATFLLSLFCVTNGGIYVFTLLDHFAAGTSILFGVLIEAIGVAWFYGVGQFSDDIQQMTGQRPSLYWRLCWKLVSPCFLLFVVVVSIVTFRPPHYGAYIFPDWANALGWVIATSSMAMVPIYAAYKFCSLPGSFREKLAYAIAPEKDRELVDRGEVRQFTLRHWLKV

[4] = Fluorescence spectra of intracellular IDT307; format: physicochemical
Description: (§1) FIG. 7—Imaging IDT307 with Zeiss LSM-510 Confocal Meta Detector. LLC Cells expressing rDAT were exposed to 10 μM IDT307 for 1 hr before rinsing with KRH buffer and imaging with a Zeiss LSM-510 confocal microscope using the meta detector. Quantification of fluorescence at each wavelength for selected regions of interest was performed using ImageJ analysis software.
FIG. 8—Fluorescence Spectra of Intracellular IDT307. IDT307 maximum absorption=420 nm, maximum emission=510 nm.

NET [5] = target: T1, NET; experiment: IDT307 accumulation/transport by time-resolved fluorescence microscopy in HEK cells expressing hNET; format: cell-based; set-up: expressed in transfected cells; host or cells: HEK cells
From the text: (§2) 4-(4-(dimethylamino)phenyl)-1-methylpyridinium iodide, referred to herein as IDT307, is a dye with optical activity that has been discussed by a number of different researchers (Bulgarevich et al., 1992; Kuo, 1978; Coe et al., 2003; Zauhar et al., 1995; Lyapustina et al., 1993). […] IDT307 fluorescent microscopy permits localization of transport activity in single cells and neuronal processes. The IDT307 fluorescent microscopy methods of the invention also permits analysis of many cells, while retaining information about single cells. The IDT307 fluorescence assays of the invention provide detailed mechanistic information about transport. For example, temporal and spatial resolution of transport, transport kinetics, affinity for substrate, turnover rates, surface expression, and binding constants may be measured. Furthermore, features such as voltage dependence of neurotransmitter accumulation can be assessed under voltage clamp using IDT307 fluorescent microscopy.
Fluorescent microscopy is used to measure transport using IDT307 which is a fluorescent substrate for several neurotransmitter transporters. Cells that either endogenously or exogenously express a […] are isolated and plated on glass bottom Petri-dishes or multi-well plates that may typically be coated with poly-L-lysine or any other cell adhesive agent. Cells are typically cultured for three or more days. […]

SERT [6] = target: T2, SERT; experiment: IDT307 accumulation/transport by fluorescence, SERT; format: cell-based; set-up: expressed in transfected cells
Description: FIG. 3—IDT307 accumulation using a FlexStation™ fluorimeter. IDT307 accumulation using the FlexStation fluorimeter (excitation 440 nm/emission filter 595 nm). LLC non-transfected and hSERT expressing (control) cells were cultured in separate wells of a 96-well plate until confluent. The accumulation of IDT307 (10 μM) in these wells was then monitored in the presence and absence of paroxetine (1 μM) using the FlexStation.
FIGS. 5A-C—Kinetics of IDT307 accumulation in hSERT using the FlexStation™ fluorimeter. Kinetics of IDT307 accumulation in hSERT using the FlexStation fluorimeter. hSERT expressing cells were cultured in wells of a 96-well plate until confluent. […] SERT specific accumulation for each concentration of IDT307 was then calculated from specific uptake values (total uptake—inhibitor treated uptake).
4-(4-(dimethylamino)phenyl)-1-methylpyridinium iodide, referred to herein as IDT307, is a dye with optical activity that has been discussed by a number of different researchers (Bulgarevich et al., 1992; Kuo, 1978; Coe et al., 2003; Zauhar et al., 1995; Lyapustina et al., 1993). […] The IDT307 fluorescence assays of the invention provide detailed mechanistic information about transport. For example, temporal and spatial resolution of transport, transport kinetics, affinity for substrate, turnover rates, surface expression, and binding constants may be measured. […]
Target sequence in this assay (P31645 whole entry): as the sequence (P31645 whole entry, species assumed) above

DAT [7] = target: T3, DAT (Rattus norvegicus, UniProt P23977); experiment: IDT307 accumulation/transport by fluorescence, DAT; format: cell-based
T3 construct: expressed in transfected cells; host or cells: LLC cells
T3 sequence (P23977 whole entry): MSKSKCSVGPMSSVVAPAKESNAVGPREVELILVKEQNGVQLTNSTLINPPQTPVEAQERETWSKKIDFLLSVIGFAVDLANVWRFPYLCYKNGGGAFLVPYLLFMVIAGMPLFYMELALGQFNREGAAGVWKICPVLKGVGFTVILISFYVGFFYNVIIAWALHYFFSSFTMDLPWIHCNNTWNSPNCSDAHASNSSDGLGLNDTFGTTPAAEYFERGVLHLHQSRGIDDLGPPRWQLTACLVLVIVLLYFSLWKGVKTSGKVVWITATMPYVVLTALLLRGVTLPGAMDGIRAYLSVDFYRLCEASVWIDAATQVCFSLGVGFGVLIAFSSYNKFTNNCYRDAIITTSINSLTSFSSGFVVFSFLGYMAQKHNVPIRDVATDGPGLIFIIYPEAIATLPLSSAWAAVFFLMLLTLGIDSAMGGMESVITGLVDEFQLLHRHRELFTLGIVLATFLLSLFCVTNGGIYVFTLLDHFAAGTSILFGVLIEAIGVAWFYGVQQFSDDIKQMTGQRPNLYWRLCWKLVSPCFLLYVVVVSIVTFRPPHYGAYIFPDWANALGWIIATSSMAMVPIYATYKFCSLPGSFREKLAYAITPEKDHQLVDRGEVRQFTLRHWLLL
Description: as §1, §2

SERT [8] = target: T2, SERT; experiment: [3H]5-HT uptake inhibition in LLC cells stably expressing hSERT; format: cell-based; set-up: expressed in transfected cells; details: [3H]5-HT 30 nM, 5 min at 37° C.
Description: FIG. 2—[^3H]5-HT uptake inhibition by IDT307 of SERT. […] LLC cells stably expressing hSERT were incubated with [^3H]5-HT (30 nM) in the presence of increasing concentrations of IDT307 (10^−12 to 10^−3) for 5 min at 37° C. Specific uptake was defined as total uptake minus uptake in the presence of the inhibitor paroxetine 1 μM.
Target sequence in this assay (P31645 whole entry): as the sequence (P31645 whole entry, species assumed) above

T1 sequence (P23975 whole entry): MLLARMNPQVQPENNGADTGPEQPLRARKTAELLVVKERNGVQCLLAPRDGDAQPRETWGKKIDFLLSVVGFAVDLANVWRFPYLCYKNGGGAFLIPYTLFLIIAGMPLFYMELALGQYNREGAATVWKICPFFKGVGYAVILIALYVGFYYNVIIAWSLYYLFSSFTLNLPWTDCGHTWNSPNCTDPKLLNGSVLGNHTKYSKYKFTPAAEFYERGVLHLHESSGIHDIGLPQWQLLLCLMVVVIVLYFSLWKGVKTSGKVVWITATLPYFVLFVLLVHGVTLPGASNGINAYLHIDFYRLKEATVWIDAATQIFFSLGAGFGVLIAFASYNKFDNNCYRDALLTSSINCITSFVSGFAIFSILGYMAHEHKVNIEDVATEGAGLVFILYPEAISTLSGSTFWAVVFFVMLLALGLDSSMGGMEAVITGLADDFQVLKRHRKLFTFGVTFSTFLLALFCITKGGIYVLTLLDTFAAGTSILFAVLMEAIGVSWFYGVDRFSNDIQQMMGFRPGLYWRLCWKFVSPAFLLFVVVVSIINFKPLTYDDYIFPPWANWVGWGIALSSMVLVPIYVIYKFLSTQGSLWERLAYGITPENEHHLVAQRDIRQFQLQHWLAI

SMILES | transport by NET (NET [1]) | effectiveness as a substrate for the serotonin transporter (SERT [2]) | transport by SERT (SERT [2]; previously reported, U.S. Publication No. 20040115703) | transport by DAT (DAT [3]) | maximum absorption [4] [nm] | maximum emission [4] [nm] | potency of IDT307 accumulation for hNET (NET [5]) | transport by NET (NET [5]) | potency of IDT307 accumulation for SERT (SERT [6]) | transport by SERT (SERT [6]) | potency of IDT307 accumulation for DAT (DAT [7]) | transport by DAT (DAT [7]) | [3H]5-HT uptake inhibition (SERT [8])
CN(C)c1ccc(C=Cc2cc[n+](C)cc2)cc1 [ASP^+, 4-(4-dimethylaminostyrl)-N-methylpyridinium] | transported | only minimally effective as a substrate | transported | transported | – | – | – | – | – | – | – | – | –
CN(C)c1ccc(-c2cc[n+](C)cc2)cc1.[I-] [IDT307, 4-(4-(dimethylamino)phenyl)-1-methylpyridinium iodide] | – | – | – | – | 420 | 510 | sub-mM potency | transported | sub-mM potency | transported | sub-mM potency | transported | competes for [^3H]5-HT uptake
